Non-standard residues stand in square brackets, D forms with d. Residues, ends and D or L forms follow the SMILES beside them.
Test system: Herpes Simplex Virus Type-1
Assay: Herpes Simplex Virus Type-1 plaque inhibition assay in Vero cells
Assay type: cell-based, Herpes simplex type 1 virus (HSV-1)
Conditions: Vero cells infected with 50 to 60 pfu HSV-1; peptide added after 2 hr virus incubation; concentration that inhibited growth of 50% of the input HSV-1
Protocol: Vero cells were seeded into 24-we! l tissue culture plates 24 to 48 hr prior to performing the plaque assay. Herpes simplex type 1 virus (HSV-1) was diluted to 50 to 60 plaque forming units (pfu)/0.1 ml Medium 199 and 0.1 ml was added to the cells. Control cultures received 0.1 ml Medium 199 without HSV-1. Plates were incubated for 2 hr at 37° C. in 5% carbon dioxide.
Following incubation of the cells with or without HSV-1, the medium was removed by aspiration. The peptides to be tested for antiviral activity were diluted in Dulbecco's modified Eagle's medium supplemented with 0.2% human gamma globulin, 5% fetal bovine serum, 10 units/ml penicillin and 5μg/ml streptomycin and 1 ml of the peptide solution was added to each of duplicate wells. Medium only was added to wells labelled for input virus or cell controls.
Cells were observed by microscopy at 24 and 48 hr to identify toxicity due to the peptides. Following the incubation period, medium was removed by aspiration and the cultures were fixed using methanol and stained with 0.037% Geimsa for 45 min. The stain was removed and the plates were rinsed and allowed to air dry. The concentration of peptide that inhibited growth of 50% of the input HSV-1 (IC50) was determined for each peptide by counting the number of viral plaques present in the peptide-treated wells as compared with the input virus control wells.
Using the plaque inhibition assay, a peptide was considered to have no antiviral effect in this assay if greater than 100 μg/ml of the peptide was required to inhibit growth of 50% of the input HSV-1.

| SMILES | Herpes Simplex Virus Type-1 Plaque Inhibition IC50 [µg/mL] |
| --- | --- |
| CC(=O)N[C@H](CCCNC(=N)N)C(=O)N[C@H](CCCNC(=N)N)C(=O)N[C@H](Cc1c[nH]c2ccccc12)C(=O)N[C@H](Cc1c[nH]c2ccccc12)C(=O)N[C@H](CS)C(=O)N[C@H](CCCNC(=N)N)C(=O)N[C@H](Cc1c[nH]cn1)C(N)=O [Ac-Arg-Arg-Trp-Trp-Cys-Arg-His-NH2] | > 100 |
| CC(=O)N[C@H](CCCNC(=N)N)C(=O)N[C@H](CCCNC(=N)N)C(=O)N[C@H](Cc1c[nH]c2ccccc12)C(=O)N[C@H](Cc1c[nH]c2ccccc12)C(=O)N[C@H](CS)C(=O)N[C@H](CCCNC(=N)N)C(=O)N[C@H](CC(N)=O)C(N)=O [Ac-Arg-Arg-Trp-Trp-Cys-Arg-Asn-NH2] | 85 |
| CC(=O)N[C@H](CCCNC(=N)N)C(=O)N[C@H](CCCNC(=N)N)C(=O)N[C@H](Cc1c[nH]c2ccccc12)C(=O)N[C@H](Cc1c[nH]c2ccccc12)C(=O)N[C@H](CS)C(=O)N[C@H](CCCNC(=N)N)C(=O)N[C@H](C)C(N)=O [Ac-Arg-Arg-Trp-Trp-Cys-Arg-Ala-NH2] | 35 |
| CSCC[C@@H](NC(=O)[C@@H](CCCNC(=N)N)NC(=O)[C@@H](CS)NC(=O)[C@@H](Cc1c[nH]c2ccccc12)NC(=O)[C@@H](Cc1c[nH]c2ccccc12)NC(=O)[C@@H](CCCNC(=N)N)NC(=O)[C@@H](CCCNC(=N)N)NC(C)=O)C(N)=O [Ac-Arg-Arg-Trp-Trp-Cys-Arg-Met-NH2] | > 50 |
| CC(=O)N[C@H](CCCNC(=N)N)C(=O)N[C@H](CCCNC(=N)N)C(=O)N[C@H](Cc1c[nH]c2ccccc12)C(=O)N[C@H](Cc1c[nH]c2ccccc12)C(=O)N[C@H](CS)C(=O)N[C@H](CCCNC(=N)N)C(=O)N[C@H](CC(=O)O)C(N)=O [Ac-Arg-Arg-Trp-Trp-Cys-Arg-Asp-NH2] | > 100 |
| CC(=O)N[C@H](CCCNC(=N)N)C(=O)N[C@H](CCCNC(=N)N)C(=O)N[C@H](Cc1c[nH]c2ccccc12)C(=O)N[C@H](Cc1c[nH]c2ccccc12)C(=O)N[C@H](CS)C(=O)N[C@H](CCCNC(=N)N)C(=O)N[C@H](Cc1ccc(O)cc1)C(N)=O [Ac-Arg-Arg-Trp-Trp-Cys-Arg-Tyr-NH2] | > 100 |
| CC(=O)N[C@H](CCCNC(=N)N)C(=O)N[C@H](CCCNC(=N)N)C(=O)N[C@H](Cc1c[nH]c2ccccc12)C(=O)N[C@H](Cc1c[nH]c2ccccc12)C(=O)N[C@H](CS)C(=O)N[C@H](CCCNC(=N)N)C(=O)N[C@H](CC(C)C)C(N)=O [Ac-Arg-Arg-Trp-Trp-Cys-Arg-Leu-NH2] | 61 |
| CC(=O)N[C@H](CCCNC(=N)N)C(=O)N[C@H](CCCNC(=N)N)C(=O)N[C@H](Cc1c[nH]c2ccccc12)C(=O)N[C@H](Cc1c[nH]c2ccccc12)C(=O)N[C@H](CS)C(=O)N[C@H](CCCNC(=N)N)C(=O)N1CCC[C@@H]1C(N)=O [Ac-Arg-Arg-Trp-Trp-Cys-Arg-Pro-NH2] | > 100 |
| CC(=O)N[C@H](CCCNC(=N)N)C(=O)N[C@H](CCCNC(=N)N)C(=O)N[C@H](Cc1c[nH]c2ccccc12)C(=O)N[C@H](Cc1c[nH]c2ccccc12)C(=O)N[C@H](CS)C(=O)N[C@H](CCCNC(=N)N)C(=O)N[C@H](CS)C(N)=O [Ac-Arg-Arg-Trp-Trp-Cys-Arg-Cys-NH2] (Ac-[dR][dR][dW][dW][dC][dR][dC]-NH2) | 50 |
| CC(=O)N[C@H](CCCNC(=N)N)C(=O)N[C@H](CCCNC(=N)N)C(=O)N[C@H](Cc1c[nH]c2ccccc12)C(=O)N[C@H](Cc1c[nH]c2ccccc12)C(=O)N[C@H](CS)C(=O)N[C@H](CCCNC(=N)N)C(=O)N[C@H](CCC(=O)O)C(N)=O [Ac-Arg-Arg-Trp-Trp-Cys-Arg-Glu-NH2] | > 100 |
| CC(=O)N[C@H](CCCNC(=N)N)C(=O)N[C@H](CCCNC(=N)N)C(=O)N[C@H](Cc1c[nH]c2ccccc12)C(=O)N[C@H](Cc1c[nH]c2ccccc12)C(=O)N[C@H](CS)C(=O)N[C@H](CCCNC(=N)N)C(=O)N[C@H](CO)C(N)=O [Ac-Arg-Arg-Trp-Trp-Cys-Arg-Ser-NH2] | > 100 |
| CC[C@@H](C)[C@@H](NC(=O)[C@@H](CCCNC(=N)N)NC(=O)[C@@H](CS)NC(=O)[C@@H](Cc1c[nH]c2ccccc12)NC(=O)[C@@H](Cc1c[nH]c2ccccc12)NC(=O)[C@@H](CCCNC(=N)N)NC(=O)[C@@H](CCCNC(=N)N)NC(C)=O)C(N)=O [Ac-Arg-Arg-Trp-Trp-Cys-Arg-Ile-NH2] | > 100 |
| CC(=O)N[C@H](CCCNC(=N)N)C(=O)N[C@H](CCCNC(=N)N)C(=O)N[C@H](Cc1c[nH]c2ccccc12)C(=O)N[C@H](Cc1c[nH]c2ccccc12)C(=O)N[C@H](CS)C(=O)N[C@H](CCCNC(=N)N)C(=O)NCC(N)=O [Ac-Arg-Arg-Trp-Trp-Cys-Arg-Gly-NH2] | > 100 |
| CC(=O)N[C@H](CCCNC(=N)N)C(=O)N[C@H](CCCNC(=N)N)C(=O)N[C@H](Cc1c[nH]c2ccccc12)C(=O)N[C@H](Cc1c[nH]c2ccccc12)C(=O)N[C@H](CS)C(=O)N[C@H](CCCNC(=N)N)C(=O)N[C@H](CCCNC(=N)N)C(N)=O [Ac-Arg-Arg-Trp-Trp-Cys-Arg-Arg-NH2] | 62 |
| CC(=O)N[C@H](CCCNC(=N)N)C(=O)N[C@H](CCCNC(=N)N)C(=O)N[C@H](Cc1c[nH]c2ccccc12)C(=O)N[C@H](Cc1c[nH]c2ccccc12)C(=O)N[C@H](CS)C(=O)N[C@H](CCCNC(=N)N)C(=O)N[C@H](CCC(N)=O)C(N)=O [Ac-Arg-Arg-Trp-Trp-Cys-Arg-Gln-NH2] | 37 |
| CC(=O)N[C@H](CCCNC(=N)N)C(=O)N[C@H](CCCNC(=N)N)C(=O)N[C@H](Cc1c[nH]c2ccccc12)C(=O)N[C@H](Cc1c[nH]c2ccccc12)C(=O)N[C@H](CS)C(=O)N[C@H](CCCNC(=N)N)C(=O)N[C@H](CCCCN)C(N)=O [Ac-Arg-Arg-Trp-Trp-Cys-Arg-Lys-NH2] | 50 |
| CC(=O)N[C@H](CCCNC(=N)N)C(=O)N[C@H](CCCNC(=N)N)C(=O)N[C@H](Cc1c[nH]c2ccccc12)C(=O)N[C@H](Cc1c[nH]c2ccccc12)C(=O)N[C@H](CS)C(=O)N[C@H](CCCNC(=N)N)C(=O)N[C@@H](C(N)=O)C(C)C [Ac-Arg-Arg-Trp-Trp-Cys-Arg-Val-NH2] | 58 |
| CC(=O)N[C@H](CCCNC(=N)N)C(=O)N[C@H](CCCNC(=N)N)C(=O)N[C@H](Cc1c[nH]c2ccccc12)C(=O)N[C@H](Cc1c[nH]c2ccccc12)C(=O)N[C@H](CS)C(=O)N[C@H](CCCNC(=N)N)C(=O)N[C@H](Cc1c[nH]c2ccccc12)C(N)=O [Ac-Arg-Arg-Trp-Trp-Cys-Arg-Trp-NH2] | 37 |
| CC(=O)N[C@H](CCCNC(=N)N)C(=O)N[C@H](CCCNC(=N)N)C(=O)N[C@H](Cc1c[nH]c2ccccc12)C(=O)N[C@H](Cc1c[nH]c2ccccc12)C(=O)N[C@H](CS)C(=O)N[C@H](CCCNC(=N)N)C(=O)N[C@H](Cc1ccccc1)C(N)=O [Ac-Arg-Arg-Trp-Trp-Cys-Arg-Phe-NH2] | 59 |
| CC(=O)N[C@H](CCCNC(=N)N)C(=O)N[C@H](CCCNC(=N)N)C(=O)N[C@H](Cc1c[nH]c2ccccc12)C(=O)N[C@H](Cc1c[nH]c2ccccc12)C(=O)N[C@H](CS)C(=O)N[C@H](CCCNC(=N)N)C(=O)N[C@@H](C(N)=O)[C@H](C)O [Ac-Arg-Arg-Trp-Trp-Cys-Arg-Thr-NH2] | > 100 |

Reference: patent publication US5441936A, “Antiviral peptides” (priority 1993, dated 1995)
